From publication PMC6539231, “4,5-Diaryl 3(2H)Furanones: Anti-Inflammatory Activity and Influence on Cancer Growth” (Molecules, 2019)
Entries after “also recorded” stand apart in the source; their conditions may differ.

Legend:
ovine COX-1 = target: T1, ovine COX-1 (Ovis aries, UniProt P05979); assay: In vitro COX-1 inhibition (Cayman COX Inhibitor Screening Assay kit); format: biochemical; conditions: for % Inhibition (COX-1): Compound concentration 50 μΜ, arachidonic acid 0.1 μM
T1 construct: purchased Cayman Chemical Co., Ann Arbor, MI, USA
T1 sequence (P05979 25-600): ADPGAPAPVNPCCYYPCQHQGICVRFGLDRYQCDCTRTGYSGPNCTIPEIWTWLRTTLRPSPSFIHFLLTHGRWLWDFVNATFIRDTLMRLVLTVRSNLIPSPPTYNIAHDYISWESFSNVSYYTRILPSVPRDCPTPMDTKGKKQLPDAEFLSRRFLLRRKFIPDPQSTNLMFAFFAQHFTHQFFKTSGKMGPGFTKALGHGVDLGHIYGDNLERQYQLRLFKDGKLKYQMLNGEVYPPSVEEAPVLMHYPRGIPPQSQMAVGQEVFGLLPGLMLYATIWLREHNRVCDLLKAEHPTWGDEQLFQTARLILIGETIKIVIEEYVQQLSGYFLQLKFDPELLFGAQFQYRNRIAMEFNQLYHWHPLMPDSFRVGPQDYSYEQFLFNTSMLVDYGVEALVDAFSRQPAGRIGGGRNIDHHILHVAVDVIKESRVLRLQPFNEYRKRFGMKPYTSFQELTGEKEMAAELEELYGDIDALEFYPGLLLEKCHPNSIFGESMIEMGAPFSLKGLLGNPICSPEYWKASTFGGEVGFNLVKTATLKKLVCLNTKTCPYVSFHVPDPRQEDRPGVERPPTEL
Description: (§1) The COX-1 and COX-2 activities of the compounds were measured using ovine COX-1 and human recombinant COX-2 enzymes included in the “COX Inhibitor Screening Assay” kit provided by Cayman (Cayman Chemical Co., Ann Arbor, MI, USA) as reported previously

human recombinant COX-2 = target: T2, human recombinant COX-2 (Homo sapiens, UniProt P35354); assay: In vitro COX-2 inhibition (Cayman COX Inhibitor Screening Assay kit); format: biochemical; conditions: for % Inhibition (COX-2): Compound concentration 50 μΜ, arachidonic acid 0.1 μM
T2 construct: purchased Cayman Chemical Co., Ann Arbor, MI, USA
T2 sequence (P35354 18-604): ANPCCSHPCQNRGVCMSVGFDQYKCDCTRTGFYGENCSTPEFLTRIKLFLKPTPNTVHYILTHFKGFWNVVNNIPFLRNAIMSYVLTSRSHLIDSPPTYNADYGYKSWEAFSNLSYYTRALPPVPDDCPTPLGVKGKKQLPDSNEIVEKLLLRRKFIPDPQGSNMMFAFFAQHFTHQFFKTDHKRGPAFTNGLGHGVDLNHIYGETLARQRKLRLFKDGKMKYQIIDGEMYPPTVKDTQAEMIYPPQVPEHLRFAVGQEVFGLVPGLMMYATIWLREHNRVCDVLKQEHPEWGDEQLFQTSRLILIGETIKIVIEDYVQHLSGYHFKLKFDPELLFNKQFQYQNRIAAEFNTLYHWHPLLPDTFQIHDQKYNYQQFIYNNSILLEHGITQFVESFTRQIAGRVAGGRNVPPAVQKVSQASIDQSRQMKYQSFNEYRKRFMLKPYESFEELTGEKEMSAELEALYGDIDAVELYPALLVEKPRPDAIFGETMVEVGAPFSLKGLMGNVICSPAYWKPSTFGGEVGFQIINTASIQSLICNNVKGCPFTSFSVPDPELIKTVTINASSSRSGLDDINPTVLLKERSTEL
Description: as §1

[1] = tested on: carrageenan mice paw oedema; assay: Carrageenin-induced mouse paw edema; format: in vivo, mice (AKR); conditions: Mus musculus, ip; Dose 0.1 µmol/g; intraperitoneally, simultaneously with carrageenin; read-out: CPE, %
Description: From the data of Table 7 it is obvious that anti-inflammatory activity of alkylsulfones and sulfoxides of furan-3(2H)-ones, including annelated derivatives are very similar.
The anti-inflammatory activity of compounds was performed using the carrageenan mice paw oedema assay. Animal of both sex (AKR), with exception of pregnant females were housed under standard conditions, receiving only water during the experimental period. […] The detailed description of the whole experiment reported previously. All the biological experiments were carried out in full compliance with the European Convention for the Protection of Vertebrate Animals used for Experimental or Other Scientific Purposes (ETS NO 123, Strasbourg, 03/18/1986): Strasbourg (France). European Treaty Series, № 123, March 18, 1986. 11 P. The project identification code and date of approval is 350880/3468 of 15-12-2014, University of Thessaloniki.

MCF-7 cells [2] = assay: Growth inhibition assay, MCF-7 cells; format: cell-based, human; conditions: Homo sapiens, MCF7, 48 h, 48 h exposure
MCF-7 cells [3] = assay: Combination (synergy) growth assay in MCF-7 cells, Combination Index; format: cell-based, human; conditions: MCF-7, 48 h; for Combination Effect with 5-fluorouracil / CI, combination with 5-fluorouracil: + 0.3 μM 5-fu; for % Cell Growth, combination with 5-fluorouracil: + 0.3 μM 5-fu (21.3 μM 1h, 2.9 μM 1g, 3.8 μM x-1, 29 μM cel); for CI, combination with 5-fluorouracil / CI, combination with gefitinib: CI <1 synergy, >1 antagonism; for Combination Effect with gefitinib / CI, combination with gefitinib: + 70 μM gef; for % Cell Growth, combination with gefitinib: + 70 μM gef (27.5 μM 1h, 10 μM 1g, 10 μM x-1, 29 μM cel)
Description: In addition, exposure of the MCF-7 cells to each of the compounds in combination with each one of the two anti-neoplastic drugs was performed in order to study the synergistic effect of the compounds. The results are shown in Table 9 and Figure 5 and Figure 6.

MCF-7 cells [4] = assay: as above; format: cell-based, human; conditions: MCF-7, 48 h; for Combination Effect with celecoxib / CI, combination with celecoxib: + 29 μM cel; for % Cell Growth, combination with celecoxib: + 29 μM cel (21.3 μM 1h, 2.9 μM 1g, 3.8 μM x-1); for CI, combination with celecoxib: CI <1 synergy, >1 antagonism
HSC-3 cells = assay: Growth inhibition assay, HSC-3 cells; conditions: for HSC-3 % Cell Growth: Compound concentration: 10μΜ; for IC50: Homo sapiens, HSC-3, 48 h, read-out: HSC-3 IC50 Values

% Inhibition (COX-1) (ovine COX-1) | IC50 (ovine COX-1; read-out: Experimental IC50 COX-1) | % Inhibition (COX-2) (human recombinant COX-2) | IC50 (human recombinant COX-2; read-out: Experimental IC50 COX-2) | IC50 (MCF-7 cells [2]) | melting point | SMILES | inhibition in vivo at 0.1 µmol/g [1] | Combination Effect with 5-fluorouracil (MCF-7 cells [3]) | % Cell Growth, combination with 5-fluorouracil (MCF-7 cells [3]) | CI, combination with 5-fluorouracil (MCF-7 cells [3]) | Combination Effect with gefitinib (MCF-7 cells [3]) | % Cell Growth, combination with gefitinib (MCF-7 cells [3]) | CI, combination with gefitinib (MCF-7 cells [3]) | Combination Effect with celecoxib (MCF-7 cells [4]) | % Cell Growth, combination with celecoxib (MCF-7 cells [4]) | CI, combination with celecoxib (MCF-7 cells [4]) | HSC-3 % Cell Growth (HSC-3 cells) | IC50 (HSC-3 cells) | HSC-3 growth inhibition (HSC-3 cells; concentration of 10 μΜ)
73% | 2.8 µM | 0% | > 50 µM | 10 µM | – | C[S+]([O-])c1ccc(C2=C(c3ccc(F)cc3)OC(C)(C)C2=O)cc1 (stereo not shown) [1g, 5-(4′-Fluorophenyl) 2,2-dimethyl-4-[4-(methylsulfinyl)phenyl]-furan-3(2H)-one] | 49% | synergism | 19.1% | 0.058 ± 0.010 <1 | synergism | 36.5% | 0.780 ± 0.200 < 1 | synergism | 36.6% | 0.750 ± 0.025 < 1 | 36 ± 4% | 7.5 µM | 64%
32% | – | 0% | – | 24 µM | 191 to 192 °C | CC1(C)OC(c2ccc(F)cc2)=C(c2ccc(S(C)(=O)=O)cc2)C1=O [1h, 5-(4′-Fluorophenyl)-2,2-dimethyl-4-[4′-(methylsulfonyl)phenyl]-furan-3(2H)-one] | 48.8% | synergism | 27.3% | 0.533 ± 0.015 <1 | antagonistic effect; also recorded: antagonism | 45.9% | >1 | antagonism | 38.6% | >1 | 100 ± 10% | 90 µM | –
